In patent US20100256136A1, “Method for Enhancing Pdt Efficacy Using a Tyrosine Kinase Inhibitor” (priority 2006, published 2010):
Counter-ions that a name gives are not always drawn.

Assays:
ABCG2 [1] = target: T1, ABCG2 (Homo sapiens, UniProt Q9UNQ0); conditions: literature (refs 8, 10); cited from earlier work
T1 sequence (Q9UNQ0 1-655): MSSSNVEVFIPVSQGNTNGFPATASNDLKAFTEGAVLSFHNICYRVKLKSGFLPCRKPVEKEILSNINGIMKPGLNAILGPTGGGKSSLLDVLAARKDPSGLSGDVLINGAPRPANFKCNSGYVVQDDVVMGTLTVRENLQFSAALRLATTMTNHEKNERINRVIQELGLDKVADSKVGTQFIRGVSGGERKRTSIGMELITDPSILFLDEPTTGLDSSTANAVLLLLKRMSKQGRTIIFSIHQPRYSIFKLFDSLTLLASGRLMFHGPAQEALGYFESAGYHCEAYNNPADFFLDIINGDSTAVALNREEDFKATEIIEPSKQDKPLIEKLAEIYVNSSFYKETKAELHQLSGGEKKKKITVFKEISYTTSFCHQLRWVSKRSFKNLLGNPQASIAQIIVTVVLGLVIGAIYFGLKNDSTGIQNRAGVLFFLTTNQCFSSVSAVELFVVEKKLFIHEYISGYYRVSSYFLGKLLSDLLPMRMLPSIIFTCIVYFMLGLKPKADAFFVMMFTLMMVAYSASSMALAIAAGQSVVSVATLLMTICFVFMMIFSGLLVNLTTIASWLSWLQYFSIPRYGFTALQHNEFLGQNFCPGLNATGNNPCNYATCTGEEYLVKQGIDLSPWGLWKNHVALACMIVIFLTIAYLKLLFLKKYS

Colo 26 cells [2] = assay: Photosensitizer efflux, 1 h in drug-free medium at 37° C. or 4° C.; format: cell-based, murine; conditions: Colo 26 cells (ABCG2+), 1 h efflux
Experimental: (§1) Cells were plated in 6-well plates at a density of 3×10^5 cells per well and incubated overnight. […] Cells were cultured for an additional 4 hours, then washed with cold culture medium and with PBS. Photosensitizer levels were determined using Solvable® (Perkin Elmer, Boston, MA) extraction (17). Briefly, the cells were solubilized in 0.5 ml Solvable® at 37° C. overnight. The Solvable® extract then was diluted 1:1 with PBS, the photosensitizer levels were determined by fluorometry, and concentrations were extrapolated from standard curves. Intracellular photosensitizer levels were normalized to intracellular protein content. To study photosensitizer efflux, cells were incubated with photosensitizer for 4 hours, then washed once with cold medium, resuspended in drug-free medium, placed at 37° C. or 4° C. for 1 hour and washed once with cold PBS. Photosensitizer levels were then determined using Solvable® extraction, as above.

RIF-1 cells [3] = assay: as above; format: cell-based, murine; conditions: RIF-1 cells (ABCG2+), 1 h efflux
Experimental: as §1

BCC-1 cells [4] = assay: as above; format: cell-based, human; conditions: BCC-1 cells (ABCG2+), 1 h efflux
Experimental: as §1

FaDu cells [5] = assay: as above; format: cell-based, human; conditions: lack ABCG2 expression, 1 h efflux
Experimental: as §1

[6] = system: HEK-293 R482 cells (ABCG2+); assay: HPPH uptake and efflux in ABCG2-transfected cells; format: cell-based
Description: (§2) In general known cell lines were used. FaDu human hypopharyngeal squamous cell carcinoma, RIF-1 murine radiation-induced fibrosarcoma and Colo 26 murine colon carcinoma cells were obtained from the American Type Culture Collection (ATCC; Manassas, VA). BCC-1/KMC, a human basal cell carcinoma cell line (14), was provided by Dr. Tak-Wah Wong, National Cheng Kung University Hospital, Tainan, Taiwan. HEK-293 cells transfected with either an empty pcDNA3 vector or a pcDNA3 vector containing full-length ABCG2 (HEK-293 pcDNA or HEK-293 […]) were provided by Dr. Susan Bates at the U.S. National Institute of Health, Bethesda, MD.. Cells were plated in 6-well plates at a density of 3×10^5 cells per well and incubated overnight. […] Cells were cultured for an additional 4 hours, then washed with cold culture medium and with PBS. Photosensitizer levels were determined using Solvable® (Perkin Elmer, Boston, MA) extraction (17). Briefly, the cells were solubilized in 0.5 ml Solvable® at 37° C. overnight. The Solvable® extract then was diluted 1:1 with PBS, the photosensitizer levels were determined by fluorometry, and concentrations were extrapolated from standard curves. Intracellular photosensitizer levels were normalized to intracellular protein content. […] Photosensitizer levels were then determined using Solvable® extraction, as above.

[7] = system: HEK-293 pcDNA cells (ABCG2-); assay: HPPH efflux in empty-vector control cells; format: cell-based; conditions: HEK293-pcDNA3 cells
Description: as §2

ABCG2 [8] = assay: ABCG2 substrate status concluded from efflux and phototoxicity studies; format: cell-based; conditions: conclusion from efflux and phototoxicity data
Experimental: as §1

HEK-293 pcDNA cells [9] = assay: In vitro PDT phototoxicity (MTT assay) with ABCG2 modulators; format: cell-based; conditions: 0.8 μM HPPH
RIF-1 tumors [10] = system: RIF-1 tumors
Experimental: (§3) To determine photosensitizer levels, samples of tumor, skin and muscle tissue were harvested 24 hours after the HPPH administration and dissolved in Solvable at 63° C. overnight. HPPH levels were measured by fluorometry as described above. In other experiments mice were administered ^14C-labelled HPPH and photosensitizer levels in the harvested tissues were determined by scintillation counting. […] After 24 hours, the tumors were treated with 665 nm light from an argon ion laser-pumped dye laser (Spectra Physics, Mountain View CA) with a fluence of 72 J/cm^2 delivered at a rate of 14 mW/cm^2. […] Tumors were measured every 1 to 3 days, and mice were sacrificed when tumor volumes exceeded 400 mm^3.

RIF-1 cells [11] = format: cell-based, murine; conditions: for Increase of intracellular HPPH levels: 0.8 μM HPPH, 10 μM modulator, p<0.01
Experimental: as §1

RIF-1 cells [12] = assay: In vitro PDT phototoxicity (MTT assay) with ABCG2 modulators; conditions: for Increase of HPPH-PDT phototoxicity: 10 μM modulator, high light doses
Experimental: Cells were plated in 96-well plates at a density of 1×10^4 cells per well. […] Cells were then irradiated with a filtered xenon arc lamp (600-700 nm) at a fluence rate of 14 mW/cm^2 for HPPH and BPD-MA, or with a red light (570-700 nm) at a fluence rate of 6.3 mW/cm^2 for ALA and Photofrin. Cell viability was evaluated by the 1,3-(4,5-dimethylthiazol-2-yl)-2,5-diphenyltetrazolium bromide (MTT) assay 48 hours after irradiation.

HEK-293 R482 cells = assay: Photosensitizer accumulation with ABCG2 modulators; format: cell-based; conditions: 10 μM modulator, 0.8 μM HPPH, four hours, p<0.05
Experimental: as §1

HEK-293 pcDNA cells [13] = assay: Photosensitizer accumulation with ABCG2 modulators; format: cell-based; conditions: 10 μM modulator, 0.8 μM HPPH, four hours
Experimental: as §1

Colo 26 cells [14] = assay: Photosensitizer accumulation with ABCG2 modulators; format: cell-based, murine; conditions: 0.8 mM ALA, with vs without imatinib mesylate
Experimental: as §1

BCC-1 cells [15] = assay: In vitro PDT phototoxicity (MTT assay) with ABCG2 modulators; format: cell-based, human; conditions: BCC-1 cells (ABCG2+), 0.4 μM HPPH, 10 μM imatinib mesylate
FaDu cells [16] = assay: as above; format: cell-based, human; conditions: FaDu cells (lack ABCG2), 0.8 μM HPPH, 10 or 20 μM imatinib mesylate
Colo 26 cells [17] = assay: as above; format: cell-based, murine; conditions: ALA, 10 μM imatinib mesylate
RIF-1 tumors [18] = assay: HPPH levels in tumor, skin and muscle of tumor-bearing mice; format: in vivo, C3H/HeJCr mice; conditions: same regimen as tumor levels, 24 hours after HPPH
Experimental: as §3

C=CC1=C(C)c2cc3[nH]c(cc4nc(cc5[nH]c(cc1n2)c(C)c5CCC(=O)O)C(CCC(=O)O)=C4C)c(C)c3C=C [5-aminolevulinic acid (ALA)-induced PpIX, protoporphyrin IX]
Transport by ABCG2 (ABCG2 [1]): transports

C=Cc1c(C)c2cc3nc(c(CC(=O)O)c4[nH]c(cc5nc(cc1[nH]2)C(C)=C5CC)c(C)c4C(=O)O)[C@@H](CCC(=O)O)[C@@H]3C [chlorin e6]
Transport by ABCG2 (ABCG2 [1]): transports

pyropheophorbide-a methyl ester
Transport by ABCG2 (ABCG2 [1]): transports

CCCCCCOC(C)c1c(C)c2cc3nc(c4c5[nH]c(cc6nc(cc1[nH]2)C(C)=C6CC)c(C)c5C(=O)C4)[C@@H](CCC(=O)O)[C@@H]3C (stereo partly shown) [HPPH, 2-[1-hexyloxyethyl]-2-devinyl pyropheophorbide-a]
Intracellular HPPH level after efflux at 37° C. compared to 4° C. (Colo 26 cells [2]): significantly (p<0.01) lower | Intracellular HPPH level after efflux at 37° C. compared to 4° C. (RIF-1 cells [3]): significantly (p<0.01) lower | Intracellular HPPH level after efflux at 37° C. compared to 4° C. (BCC-1 cells [4]): significantly (p<0.01) lower | HPPH content following efflux at 37° C. and 4° C. (FaDu cells [5]): did not differ significantly | Intracellular HPPH level after efflux at 4° C. compared to 37° C. ([6]; HEK-293 R482 cells, 1 h efflux): significantly (p<0.05) higher | HPPH levels after uptake (0 hour group), ABCG2- HEK-293 pcDNA3 cells compared to ABCG2+ HEK-293 R482 cells ([6]; after 4 h uptake): significantly (p<0.05) higher | Temperature-dependent changes in efflux of HPPH [7]: no temperature-dependent changes | Substrate for ABCG2 (ABCG2 [8]): ABCG2 substrate | Sensitivity to HPPH-PDT, HEK-293 pcDNA cells compared to HEK-293 R482 cells (HEK-293 pcDNA cells [9]; no modulator): more sensitive | Time for 50% of the tumors to grow to 400 mm^3 (RIF-1 tumors [10]; HPPH-PDT treatment alone: 0.2 μmol/kg HPPH, 24 hours later 72 J/cm^2 665 nm light at 14 mW/cm^2): 6 days

COc1ccc2c3c([nH]c2c1)[C@H](C=C(C)C)N1C(=O)[C@@H]2CCCN2C(=O)[C@@H]1C3 [FTC, fumitremorgin C]
Increase of intracellular HPPH levels (RIF-1 cells [11]): ~4 fold | Increase of HPPH-PDT phototoxicity (RIF-1 cells [12]; 0.8 μM HPPH): ~2 logs

Cc1ccc(NC(=O)c2ccc(CN3CCN(C)CC3)cc2)cc1Nc1nccc(-c2cccnc2)n1 [imatinib mesylate, 4[(4-methyl-1-piperazininyl)methyl]-N-(4-methyl-3-[(4-(3-pyidinyl)-2-pyrimidinyl)amino)-phenyl] benzamide methane sulfonate]
Effect on intracellular HPPH levels (HEK-293 R482 cells): increased | Effect on HPPH accumulation (HEK-293 pcDNA cells [13]): no effect | Effect on intracellular levels of BPD-MA (RIF-1 cells [11]; 0.14 μM BPD-MA, with vs without imatinib mesylate): increased | Increase of intracellular HPPH levels (RIF-1 cells [11]): ~4 fold | Effect on intracellular levels of ALA-induced PpIX (Colo 26 cells [14]): increased | Effect on sensitivity to HPPH-PDT (HEK-293 pcDNA cells [9]; HEK-293 pcDNA3 cells, pretreatment with 10 μM): no effect | Effect on HPPH-PDT phototoxicity (BCC-1 cells [15]): increased | Effect on HPPH-PDT phototoxicity (FaDu cells [16]): not | Effect on phototoxicity of PpIX (Colo 26 cells [17]): increased | Effect on HPPH levels in skin and muscle (RIF-1 tumors [18]): less effect | Anti-tumor effects of imatinib mesylate alone, without PDT (RIF-1 tumors [10]; brief course, 4 x 200 mg/kg oral gavage): no anti-tumor effects | Observable toxicity (RIF-1 tumors [10]; mouse, in vivo): no observable toxicity | Effect on phototoxicity of BPD-MA (RIF-1 cells [12]; 0.14 μM BPD-MA, 10 μM imatinib mesylate): increased | Increase of HPPH-PDT phototoxicity (RIF-1 cells [12]; 0.8 μM HPPH): ~2 logs | Effect on phototoxicity of HPPH-lactose-PDT (RIF-1 cells [12]; 1.6 μM HPPH-Lactose, 10 μM imatinib mesylate): did not increase | Effect on phototoxicity of Photofrin-PDT (RIF-1 cells [12]; 2 μg/ml Photofrin, 10 μM imatinib mesylate): did not increase

COc1cc2ncnc(Nc3ccc(F)c(Cl)c3)c2cc1OCCCN1CCOCC1 [gefitnib, N-(3-chloro-4-fluoro-phenyly)-7-methoxy-6(3-morpholin-4-ylpropoxy) quinazolin-4-amine]
Effect on HPPH-PDT phototoxicity (RIF-1 cells [12]; 0.8 μM HPPH, CsA 10 μM, gefitinib 5 μM): effective | Dark toxicity (RIF-1 cells [12]; 5 μM): significant dark toxicity

C=Cc1c(C)c2cc3nc(c4c5[nH]c(cc6nc(cc1[nH]2)C(C)=C6CC)c(C)c5C(=O)[C@@H]4C(=O)OC)[C@@H](CCC(=O)O)[C@@H]3C [pheophorbide α]
Transport by ABCG2 (ABCG2 [1]): specific substrate
